The values that follow come from patent US20250051578A1, “RHODAMINE-METHYLENE BLUE DERIVATIVE FLUORESCENT PROBE AND PREPARATION METHOD AND APPLICATION THEREOF” (Henan Polytechnic University, priority 2023, published 2025).

Entries after “also recorded” stand apart in the source; their conditions may differ.

The test concerns Raw246.7 cells. The test is described as follows: Dual-channel confocal fluorescence imaging of ClO^− and ATP in cells. Type of test: cell-based. The conditions noted are these: for fluorescence of the NIR channel (ClO^− level) versus control group / fluorescence of the yellow channel (ATP level) versus control group: Raw246.7 cells incubated with the substance 1 h, then fluorescent probe 1×10^−5 mol/L 30 min. On the procedure:
After Raw246.7 cells are incubated with relevant steps, fluorescence imaging is performed by an Olympus FV500-IX70 laser confocal microscope, and results of the fluorescence imaging are shown in FIG. 6. Control group (Control): the Raw246.7 cells are incubated with the fluorescent probe (1×10^−5 mol/L) for 30 minutes (min). Oligomycin A (Omy A) group: the Raw246.7 cells are incubated with Omy A (2×10^−5 mol/L) for 1 h and then incubated with the fluorescent probe (1×10^−5 mol/L) for 30 min. Omy A+ATP group: the Raw246.7 cells are incubated with Omy A (2×10^−5 mol/L) for 1 h to obtain incubated cells, the incubated cells are incubated with the ATP (1×10^−3 mol/L) for 1 h and then incubated with the fluorescent probe (1×10^−5 mol/L) for 30 min. N-acetylcysteine (NAC) group: the Raw246.7 cells are incubated with NAC (5×10^−4 mol/L) for 1 h and then incubated with the fluorescent probe (1×10^−5 mol/L) for 30 min. NAC+ClO^− group: the Raw246.7 cells are incubated with NAC (5×10^−4 mol/L) for 1 h to obtain incubated cells, the incubated cells are incubated with ClO^− (2×10^−4 mol/L) for 1 h and then incubated with the fluorescent probe (1×10^−5 mol/L) for 30 min.
After the Raw246.7 cells are incubated with relevant steps, the fluorescence imaging is performed by the Olympus FV500-IX70 laser confocal microscope, and results of the fluorescence imaging are shown in FIG. 7. Control group (Control): the Raw246.7 cells are incubated with the fluorescent probe (1×10^−5 mol/L) for 30 min, and a concentration of glucose (Glu) in a culture media is 5.5×10^−3 mol/L. Lipopolysaccharide (LPS) group: the Raw246.7 cells are incubated with LPS ([…]) for 1 h and then incubated with the fluorescent probe (1×10^−5 mol/L) for 30 min. No Glu group: the Raw246.7 cells are incubated with the fluorescent probe (1×10^−5 mol/L) for 30 min, and no Glu is added to the culture media. High Glu group: the Raw246.7 cells are incubated with the fluorescent probe (1×10^−5 mol/L) for 30 min, and the concentration of Glu in the culture media is 2.5×10^−2 mol/L. Acetaminophen (C8H9NO2, APAP) group: the Raw246.7 cells are incubated with […] for 1 h and then incubated with the fluorescent probe (1×10^−5 mol/L) for 30 min.

For the compound `CCN(CC)c1ccc2c(c1)Oc1cc(N(CC)CC)ccc1C21c2ccccc2C(=O)N1CCN1CCN(C(=O)N2c3ccc(N(C)C)cc3Sc3cc(N(C)C)ccc32)CC1`, where the note is “Raw246.7 cells, probe 1×10^−5 mol/L 30 min, NIR channel, listed as fluorescent probe”, the “detection of ClO^− in cells by the probe” value is given as “can detect exogenous ClO^− in cells; also recorded: can detect endogenous ClO^−”. Where the note is “Raw246.7 cells, probe 1×10^−5 mol/L 30 min, yellow channel, listed as fluorescent probe”, the “detection of ATP in cells by the probe” value was “can detect exogenous ATP in cells; also recorded: can detect endogenous ATP”.

Turning to `CC(=O)Nc1ccc(O)cc1` [APAP, Acetaminophen], the “fluorescence of the NIR channel (ClO^− level) versus control group” value is given as “significantly enhanced” and the “fluorescence of the yellow channel (ATP level) versus control group” value was “almost non-fluorescent”.

Take `CC(=O)N[C@@H](CS)C(=O)O` [NAC, N-acetylcysteine]: the “fluorescence of the NIR channel (ClO^− level) versus control group” value is “significantly weakened” and the “fluorescence of the yellow channel (ATP level) versus control group” value is on record as “significantly enhanced”.

For `CC[C@@H]1/C=C/C=C/C[C@H](C)[C@H](O)[C@](C)(O)C(=O)[C@H](C)[C@@H](O)[C@H](C)C(=O)[C@H](C)[C@@H](O)[C@H](C)/C=C/C(=O)O[C@H]2[C@@H](C)[C@@H](CC1)O[C@@]1(CC[C@@H](C)[C@@H](C[C@H](C)O)O1)[C@@H]2C` [Omy A, Oligomycin A], the “fluorescence of the NIR channel (ClO^− level) versus control group” value was “significantly enhanced” and the “fluorescence of the yellow channel (ATP level) versus control group” value is listed as “significantly weakened”.

Regarding Lipopolysaccharide [LPS], the “fluorescence of the NIR channel (ClO^− level) versus control group” value is “significantly enhanced” and the “fluorescence of the yellow channel (ATP level) versus control group” value is recorded as “significantly weakened”.
